Test results: ChEMBL document CHEMBL1201862, “PubChem BioAssay data set” (2004)
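Exposure lasted 48 hours, with cells grown in 96-well plates and compounds tested at five concentrations. GI50 marks 50% less growth.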 Calls of active or inactive are those of the source. No stated cut-off is given here; in the data, active = GI50 up to about 1.1 µM and inactive = higher.

How the values were obtained:
Assay in all cases: NCI-60 cell line screen, 48 h
KM12 = tested on: KM12
MDA-MB-435 = tested on: MDA-MB-435
M14 = tested on: M14
SF-539 = tested on: SF-539
HOP-92 = tested on: HOP-92
Hs-578T = tested on: Hs-578T
A549 = tested on: A549
OVCAR-8 = tested on: OVCAR-8
RPMI-8226 = tested on: RPMI-8226
BT-549 = tested on: BT-549
UACC-257 = tested on: UACC-257
OVCAR-5 = tested on: OVCAR-5
SK-MEL-2 = tested on: SK-MEL-2
SNB-75 = tested on: SNB-75
EKVX = tested on: EKVX
MDA-N = tested on: MDA-N
NCI-H226 = tested on: NCI-H226
UACC-62 = tested on: UACC-62
NCI-H522 = tested on: NCI-H522
A498 = tested on: A498
HL-60 = tested on: HL-60
RXF 393 = tested on: RXF 393
SF-268 = tested on: SF-268
UO-31 = tested on: UO-31
DU-145 = tested on: DU-145
CCRF-CEM = tested on: CCRF-CEM
OVCAR-4 = tested on: OVCAR-4
TK-10 = tested on: TK-10
SR = tested on: SR
CAKI-1 = tested on: CAKI-1
SK-MEL-28 = tested on: SK-MEL-28
LOX IMVI = tested on: LOX IMVI
SK-OV-3 = tested on: SK-OV-3
OVCAR-3 = tested on: OVCAR-3
786-0 = tested on: 786-0
HT-29 = tested on: HT-29
NCI-H460 = tested on: NCI-H460
IGROV-1 = tested on: IGROV-1
HCT-116 = tested on: HCT-116
HCT-15 = tested on: HCT-15
ACHN = tested on: ACHN
COLO 205 = tested on: COLO 205
PC-3 = tested on: PC-3
Malme-3M = tested on: Malme-3M
MDA-MB-231 = tested on: MDA-MB-231
SN12C = tested on: SN12C
U-251 = tested on: U-251
SF-295 = tested on: SF-295
SW-620 = tested on: SW-620
NCI/ADR-RES = tested on: NCI/ADR-RES
MCF7 = tested on: MCF7
SNB-19 = tested on: SNB-19
SK-MEL-5 = tested on: SK-MEL-5
K562 = tested on: K562
HOP-62 = tested on: HOP-62
NCI-H23 = tested on: NCI-H23
MOLT-4 = tested on: MOLT-4
T47D = tested on: T47D

Structure (SMILES): NC(=O)CO/N=C1/C(=C2/C(=O)Nc3ccccc32)Nc2ccccc21
- GI50 (KM12): 0.247 µM (active)
- GI50 (MDA-MB-435): 21.1 µM (inactive)
- GI50 (M14): 10.4 µM (inactive)
- GI50 (SF-539): > 100 µM (inactive)
- GI50 (HOP-92): > 100 µM (inactive)
- GI50 (Hs-578T): > 100 µM (inactive)
- GI50 (A549): 1.96 µM (inactive)
- GI50 (OVCAR-8): 62.5 µM (inactive)
- GI50 (RPMI-8226): 17.9 µM (inactive)
- GI50 (BT-549): 12.4 µM (inactive)
- GI50 (UACC-257): > 100 µM (inactive)
- GI50 (OVCAR-5): > 100 µM (inactive)
- GI50 (SK-MEL-2): 2.4 µM (inactive)
- GI50 (SNB-75): > 100 µM (inactive)
- GI50 (EKVX): > 100 µM (inactive)
- GI50 (MDA-N): 53 µM (inactive)
- GI50 (NCI-H226): 4.35 µM (inactive)
- GI50 (UACC-62): 5.87 µM (inactive)
- GI50 (NCI-H522): > 100 µM (inactive)
- GI50 (A498): > 100 µM (inactive)
- GI50 (HL-60): 1.96 µM (inactive)
- GI50 (RXF 393): 0.491 µM (active)
- GI50 (SF-268): > 100 µM (inactive)
- GI50 (UO-31): 1.77 µM (inactive)
- GI50 (DU-145): 1.67 µM (inactive)
- GI50 (CCRF-CEM): 11.5 µM (inactive)
- GI50 (OVCAR-4): > 100 µM (inactive)
- GI50 (TK-10): 3.85 µM (inactive)
- GI50 (SR): 0.778 µM (active)
- GI50 (CAKI-1): 0.247 µM (active)
- GI50 (SK-MEL-28): > 100 µM (inactive)
- GI50 (LOX IMVI): 1.04 µM (active)
- GI50 (SK-OV-3): 0.522 µM (active)
- GI50 (OVCAR-3): 4.49 µM (inactive)
- GI50 (786-0): > 100 µM (inactive)
- GI50 (HT-29): 2.12 µM (inactive)
- GI50 (NCI-H460): 1.11 µM (active)
- GI50 (IGROV-1): 0.395 µM (active)
- GI50 (HCT-116): 0.755 µM (active)
- GI50 (HCT-15): 2 µM
- GI50 (ACHN): 3.48 µM (inactive)
- GI50 (COLO 205): 1.86 µM (inactive)
- GI50 (PC-3): > 100 µM (inactive)
- GI50 (Malme-3M): > 100 µM (inactive)
- GI50 (MDA-MB-231): > 100 µM (inactive)
- GI50 (SN12C): > 100 µM (inactive)
- GI50 (U-251): > 100 µM (inactive)
- GI50 (SF-295): > 100 µM (inactive)
- GI50 (SW-620): 4.95 µM (inactive)
- GI50 (NCI/ADR-RES): > 100 µM (inactive)
- GI50 (MCF7): 1.38 µM (inactive)
- GI50 (SNB-19): > 100 µM (inactive)
- GI50 (SK-MEL-5): 1.49 µM (inactive)
- GI50 (K562): 40 µM (inactive)
- GI50 (HOP-62): 22.6 µM (inactive)
- GI50 (NCI-H23): 0.811 µM (active)
- GI50 (MOLT-4): 3.44 µM (inactive)

Structure (SMILES): Cc1cc(NC(=S)SCc2ccc(F)cc2)c([N+](=O)[O-])cc1C
- GI50 (KM12): 19.9 µM (inactive)
- GI50 (MDA-MB-435): 26.7 µM (inactive)
- GI50 (M14): 35.5 µM (inactive)
- GI50 (SF-539): 23.8 µM (inactive)
- GI50 (HOP-92): 18.4 µM (inactive)
- GI50 (Hs-578T): 13.4 µM (inactive)
- GI50 (A549): 27.7 µM (inactive)
- GI50 (OVCAR-8): 19 µM (inactive)
- GI50 (BT-549): 28.2 µM (inactive)
- GI50 (UACC-257): 21 µM (inactive)
- GI50 (OVCAR-5): 21.6 µM (inactive)
- GI50 (SNB-75): 46.9 µM (inactive)
- GI50 (EKVX): 39.6 µM (inactive)
- GI50 (NCI-H226): 16.6 µM (inactive)
- GI50 (UACC-62): 15 µM (inactive)
- GI50 (HL-60): 16.9 µM (inactive)
- GI50 (RXF 393): 22.9 µM (inactive)
- GI50 (SF-268): 31.5 µM (inactive)
- GI50 (DU-145): 32.2 µM (inactive)
- GI50 (OVCAR-4): 30.9 µM (inactive)
- GI50 (TK-10): 24.2 µM (inactive)
- GI50 (SR): 20.3 µM (inactive)
- GI50 (CAKI-1): 47.2 µM (inactive)
- GI50 (SK-MEL-28): 39.1 µM (inactive)
- GI50 (T47D): 48.8 µM (inactive)
- GI50 (SK-OV-3): 32.3 µM (inactive)
- GI50 (OVCAR-3): 22.6 µM (inactive)
- GI50 (786-0): 33.3 µM (inactive)
- GI50 (HT-29): 13.6 µM (inactive)
- GI50 (NCI-H460): 36.7 µM (inactive)
- GI50 (HCT-116): 26.2 µM (inactive)
- GI50 (HCT-15): 18.3 µM
- GI50 (ACHN): 32.4 µM (inactive)
- GI50 (COLO 205): 19.3 µM (inactive)
- GI50 (PC-3): 42.2 µM (inactive)
- GI50 (Malme-3M): 25.6 µM (inactive)
- GI50 (MDA-MB-231): 14.6 µM (inactive)
- GI50 (SN12C): 19.4 µM (inactive)
- GI50 (U-251): 22.4 µM (inactive)
- GI50 (SF-295): 34.5 µM (inactive)
- GI50 (SW-620): 27.5 µM (inactive)
- GI50 (NCI/ADR-RES): 25.8 µM (inactive)
- GI50 (MCF7): 42.1 µM (inactive)
- GI50 (SNB-19): 23.2 µM (inactive)
- GI50 (SK-MEL-5): 8.71 µM (inactive)
- GI50 (K562): 32.3 µM (inactive)
- GI50 (HOP-62): 24.7 µM (inactive)
- GI50 (NCI-H23): 29.8 µM (inactive)
- GI50 (MOLT-4): 3.29 µM (inactive)
